Measurements: patent US20210177542A1, “POWDER FOR CLEANING AN INTERNAL BODY PART AND/OR AN IMPLANT, METHOD FOR PRODUCING SAID TYPE OF POWDER AND SUITABLE USES” (FERTON HOLDING S.A., priority 2017, published 2021)
In brackets after ≈: the same amount, converted by molar mass.

What was measured:
Type in all cases: physicochemical
Density of the powder = details: Table 1
From the text: In another embodiment of the present disclosure, it is provided for the powder to have a density between 0.2 and 3 g/cm^3, preferably between 0.2 and 2.4 g/ cm^3 and particularly preferably between 0.2 and 1.6 g/ cm^3.

[1] = Hygroscopicity (moisture absorption) of the powder types; details: sensitivity to moisture during sterilizing
From the text: The powders of present disclosure are hygroscopic. According to a preferred embodiment, amorphous silica (silicon dioxide) is therefore added to the powders, especially in a volume ratio of 0.1 to 2.5%. This can reduce or even completely prevent absorption of moisture by the powder during sterilizing. The addition of amorphous silica results in hydrophobic coating for the powder particles, thus counteracting the moisture absorption of the powder particles during the sterilizing process. In less hygroscopic powders, addition of amorphous silica may be reduced or even completely omitted. The following powder types may be classified as hygroscopic: sodium hydrogen carbonate, glycine and erythritol.

[2] = Solubility in water at 20° C.; details: for Solubility in water: Table 2; for solubility: water, Table 1
From the text: In this disclosure, substances are classified as water-soluble if more than 1 g of powder can be added per liter. […] The preferred powders have the following properties: […]

Density (Density of the powder) | Classification as hygroscopic [1] | Solubility in water [2] | solubility [2] | Compound
2.54 g/mL | hygroscopic | – | – | O=C([O-])O.[Na+] [Sodium bicarbonate, sodium bicarbonate]
1.61 g/mL | hygroscopic | – | – | NCC(=O)O [Glycine, glycine]
1.80 g/mL | slightly less sensitive | 690 g/1 | 690 mg/mL (≈ 2020 mM) | OC[C@H]1O[C@H](O[C@H]2O[C@H](CO)[C@@H](O)[C@H](O)[C@H]2O)[C@H](O)[C@@H](O)[C@@H]1O [Trehalose, trehalose]
1.45 g/mL | hygroscopic | 540 g/1 | 540 mg/mL (≈ 4420 mM) | OC[C@@H](O)[C@@H](O)CO [Erythritol, erythritol]
